≈ marks a conversion by molar mass, not a printed value. Entries after “also recorded” stand apart in the source; their conditions may differ.
What was measured:
[1] = test system: D54 tumors in which 10% of the cells express E. coli PNP; test: Intratumoral injection into D54 tumors in which 10% of cells express E. coli PNP; type: in vivo, nude mice
Protocol: Parental and E. coli PNP expressing D54MG (human glioma) tumor cells (2×10^7 cells) are injected subcutaneously into the flanks of nude mice (nu/nu) purchased from Charles River Laboratories (Wilmington, Mass.). […] Tumors are measured with calipers and an estimate of the weight calculated using the equation, (length×width^2)/2=mm^3, and converted to mg assuming unit density. […] Each treatment arm of each group contained at least 6 mice. Mice are monitored daily for weight loss and twice weekly for tumor dimensions. T-C (tumor growth delay) is taken as the difference in days to 2 doublings between drug-treated and saline-treated groups. The time to the evaluation point for each animal (2 doublings) is used as the end point in a Student's t-test, the Mann-Whitney rank sum test, or a life table analysis in order to statistically compare growth data between treatment groups. […] Treatments are initiated when tumors are 250 to 300 mg (˜1-1.5% of total animal weight).

[2] = test system: D54 tumors in which 10% of cells express E. coli PNP; test: F-araAMP plus radiation on D54 tumors in which 10% of cells express E. coli PNP; settings: 3 mg F-araAMP in saline x3, radiation 4 Gy x3, 3 hours after injection
Protocol: Locally advanced solid tumors often become resistant to radiation therapy. As a test of adjuvant E. coli PNP in this setting, F-araAMP injection together with external beam radiation is investigated.
D54 tumor cells in which 10% of cells expressed E. coli PNP are injected sc into the flanks of nude mice. The tumors are treated with radiation, F-araAMP, or F-araAMP plus radiation. In two treatment groups, tumors are injected once per day for 3 consecutive days with 150 μl of either saline or 3 mg F-araAMP dissolved in saline. In two other treatment groups radiation (4 Gy) is administered once per day for 3 consecutive days 3 hours after injection of 150 μl of either saline (filled squares) or 3 mg F-araAMP dissolved in saline (open squares).

[3] = test system: parental D54 tumors (no E. coli PNP expression); test: Intratumoral injection into parental D54 tumors (no E. coli PNP expression)
Protocol: Parental and E. coli PNP expressing D54MG (human glioma) tumor cells (2×10^7 cells) are injected subcutaneously into the flanks of nude mice (nu/nu) purchased from Charles River Laboratories (Wilmington, Mass.). D54 tumor cells stably transduced with E. coli PNP are prepared as described previously (Parker et al. Cancer Gene Therapy 2011 June; 18(6):390-8). Tumors are measured with calipers and an estimate of the weight calculated using the equation, (length×width^2)/2=mm^3, and converted to mg assuming unit density. […] Each treatment arm of each group contained at least 6 mice. Mice are monitored daily for weight loss and twice weekly for tumor dimensions. T-C (tumor growth delay) is taken as the difference in days to 2 doublings between drug-treated and saline-treated groups. The time to the evaluation point for each animal (2 doublings) is used as the end point in a Student's t-test, the Mann-Whitney rank sum test, or a life table analysis in order to statistically compare growth data between treatment groups. All procedures are performed in accordance with a protocol approved by the IACUC of Southern Research Institute. F-araAMP is obtained from Schering A.-G. (Berlin, Germany). In this and subsequent examples, F-Ade is obtained from General Intermediates of Canada, Inc. (Edmonton, Alberta, Canada). Treatments are initiated when tumors are 250 to 300 mg (˜1-1.5% of total animal weight).
In FIG. 2A, parental D54 tumor cells are mixed with D54 tumor cells that had been transduced with E. coli PNP to a final proportion in which 10% express the transgene. This 90/10 mixture is injected sc into the flanks of nude mice. Tumors are injected once per day for 3 consecutive days starting on day 14 with 150 μl of saline, 1.5 mg of F-araAMP dissolved in saline, or 3 mg of F-araAMP is dissolved in saline. […] In FIG. 2B, parental D54 tumor cells (no E. coli PNP expression) are injected sc into the flanks of nude mice. Tumors are inoculated once per day for 3 consecutive days starting on day 14 with 150 μl of saline, 3 mg F-araAMP is dissolved in saline, 0.15 mg of F-Ade dissolved in saline, 1.26 mg of F-Ade dissolved in […] DMSO, 0.63 mg of F-Ade dissolved in DMSO, or DMSO.
As noted above, the amount of F-araAMP given intratumorally (in FIG. 2A) is less than the total intraperitoneal dose described in FIG. 1. In order to investigate the impact of higher doses of F-araAMP, the F-araAMP is dissolved in DMSO, and given at concentrations well tolerated IT, but well above the maximally-tolerated dose if administered IP (Hong et al. Cancer Res. 2004; 64: 6610-6615). Three doses of 6 or 24 mg is administered by IT injection to tumors in which 10% of cells expressed E. coli PNP (FIG. 2C). Parental D54 tumor cells or mixtures of D54 tumor cells in which 10% of the cells express E. coli PNP are injected sc into the flanks of nude mice. Tumors are injected once per day for 3 consecutive days starting on day 17 with 150 μl of DMSO, 24 mg F-araAMP in DMSO, or 6 mg F-araAMP in DMSO.

[4] = test system: D54 tumors that express E. coli PNP in 5% of the cells; test: Systemic intraperitoneal F-araAMP on D54 tumors expressing E. coli PNP in 5% of cells; type: in vivo, nude mice
Protocol: Intraperitoneal treatment with F-araAMP (250 mg/kg once per day for 3 consecutive days; 167 mg/kg 3 times per day for 3 consecutive days; 100 mg/kg 5 times a day for 3 consecutive days; or vehicle control 5 times a day×3 days) began on day 17 when tumors are approximately 250 mg. […] (FIG. 1)

[5] = test system: D54 tumors; test: Radioactivity in tumors after intratumoral injection of [3H]F-araAMP, parental D54 tumors; type: in vivo, mice
Protocol: Total radioactivity is determined after injection of 3 mg [8-^3H]F-araAMP (10 μCi) into 300 mg D54 flank tumors. [8-^3H]F-araAMP is obtained from Moravek Biochemicals Inc. (Brea, Calif.). Tumors are removed from the mice at 10 minutes or 4 hours after injection and dissolved in 1 ml of Soluene 350 (Packard Instrument, Meriden, Conn.) by incubating at 55° C. for 4 hours. A portion of each extract is mixed with scintillation fluid and radioactivity determined.
In an effort to understand the pharmacodynamics of intratumoral (IT) F-araAMP, the levels of prodrug activation in parental (D54) tumors and tumors in which 10% of cells expressed E. coli PNP are monitored (Table 1). Tumor tissue is collected 10 minutes or 4 hours after IT injection of 3 mg [^3H]-F-araAMP and the amount of radioactivity remaining in the tumor mass determined.
Three mg (8,200 nmoles) of [^3H]F-araAMP (10 μCi/injection) are injected into D54 tumors or D54 tumors in which 10% of the cells express E. coli PNP as described in FIG. 2. Tumors (approximately 300 mg) are removed 10 minutes and 4 hours after injection with F-araAMP and the amount of radioactivity in each tumor determined. There are 4 tumors per group.

[6] = schedule q1d×3; cited from earlier work
[7] = Limit of solubility of F-Ade in water; type: physicochemical; settings: dissolved in water
[8] = target: T1, E. coli PNP (Escherichia coli, UniProt P0ABP8); settings: cited from earlier work
T1 construct: expressed in transfected cells; host or cells: D54MG human glioma cells, either stably transduced by lentivirus or transduced in vivo with adenoviral vector Ad/PNP, grown as xenografts in nude mice; Crude tumor extracts were assayed

[9] = target: T1, E. coli PNP; test: Measurement of E. coli PNP activity in tumor extracts; type: biochemical; settings: D54 tumors on day 20 after 2×10^11 VP Ad/PNP IT twice per day x3 days, FIG. 5A experiment
Protocol: The proportion of lentiviral transduced cells in a tumor mass is verified by measuring E. coli PNP activity in representative cancers removed from mice on the first day of drug treatment. Crude extracts are prepared as described previously (Parker et al. Human Gene Therapy 1997; 8: 1637-1644) after tumor excision from the flanks of mice. […] The formation of MeP is monitored using reverse phase HPLC. By convention, one unit of PNP activity is defined as the amount of extract necessary to cleave 1 nmole of MeP-dR per mg protein in a 1 hour period.

T1 sequence (P0ABP8 whole entry): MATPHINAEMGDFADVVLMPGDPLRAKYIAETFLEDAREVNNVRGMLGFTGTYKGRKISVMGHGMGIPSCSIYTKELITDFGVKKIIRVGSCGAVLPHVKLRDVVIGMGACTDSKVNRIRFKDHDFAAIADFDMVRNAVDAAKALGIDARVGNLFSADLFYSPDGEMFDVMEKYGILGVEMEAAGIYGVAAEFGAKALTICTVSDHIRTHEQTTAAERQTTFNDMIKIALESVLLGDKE

## Nc1nc(F)nc2c1ncn2[C@@H]1O[C@H](COP(=O)(O)O)[C@@H](O)[C@@H]1O [F-araAMP, fludarabine phosphate]
[1]; 3 mg F-araAMP IT per injection, 3 total injections
  Weight loss: less than 4%
[1]; 3 mg F-araAMP in saline IT once per day x3 from day 14, FIG. 2A
  Tumor growth, P versus vehicle treated group: < 0.001
[1]; 6 mg F-araAMP in DMSO IT once per day x3 from day 17, FIG. 2C
  Tumor growth, P versus vehicle treated group: 0.014
[1]; 6 mg F-araAMP in DMSO IT x3
  Tumor ulcerations: no ulcerations
[1]; 24 mg F-araAMP in DMSO IT once per day x3 from day 17, FIG. 2C
  Tumor growth, P versus vehicle treated group: < 0.001
[1]; 24 mg F-araAMP in DMSO IT x3
  Tumors that became ulcerated: Three of the 6
[1]; 24 mg F-araAMP in DMSO IT x3, of 6 tumors, 3 sacrificed for ulceration
  Tumors completely regressed, mice tumor-free until day 70: 3 tumors
[1]; F-araAMP IT at the highest dose (24 mg), recovered rapidly
  Decrease in body weight: 7%
[1]; F-araAMP in saline IT once per day x3 from day 14, FIG. 2A
  Tumor growth, P of 3 mg group versus 1.5 mg group: 0.458
[2]
  Tumor growth, P of radiation plus F-araAMP versus F-araAMP only: 0.004
  Tumor growth, P of radiation plus F-araAMP versus radiation only: < 0.001
[3]; IT F-araAMP, FIGS. 2B, 2D and 3
  Effect on tumor growth: no effect
[4]; IP F-araAMP
  Gross tissue damage in region surrounding the tumor: no gross tissue damage
[4]; IP F-araAMP, quickly regained after schedule completed
  Decrease in body weight: 10 to 20%
[4]; all IP F-araAMP groups (250 mg/kg x3, 167 mg/kg x9, 100 mg/kg x15 over 3 days), from day 17, FIG. 1
  Tumor growth, P versus vehicle treated group: < 0.001
[5]; 10 min after IT injection of 3 mg [3H]F-araAMP
  Radioactivity in tumor, nmoles F-araAMP/gram of tissue: 980 ± 730 nmoles F-araAMP/gram of tissue
[5]; 4 hours after IT injection of 3 mg [3H]F-araAMP
  Radioactivity in tumor, nmoles F-araAMP/gram of tissue: 31 ± 6 nmoles F-araAMP/gram of tissue
[6]
  Maximally tolerated dose: 750 mg/kg

## Nc1nc(F)nc2nc[nH]c12 [F-Ade, 2-fluoroadenine]
[3]; 0.63 mg F-Ade in DMSO IT once per day x3, FIG. 2B
  Tumor growth, P versus DMSO vehicle group: 0.011
[3]; F-Ade 0.15 ml of 1 mg/ml in water/saline (highest possible solubility) IT
  Antitumor effect: no antitumor effect; also recorded: fails to elicit antitumor activity
[3]; F-Ade in DMSO IT (0.15 ml of 8.6 mg/ml; 1.26 mg x3)
  Antitumor effect: modest antitumor effect; also recorded: minimal antitumor activity
[3]; F-Ade in DMSO, three IT injections
  Maximally tolerated dose (MTD): ~1.26 mg
[3]; three IT injections of 1.26 mg F-Ade in DMSO
  Decrease in body weight: 10%
[3]; three IT injections of 2.5 mg F-Ade in DMSO
  Death of mice: 3 of 6
[3]; three IT injections of 5 mg F-Ade in DMSO
  Death of mice: 4 of 6
[7]
  solubility: 1000 µg/mL (≈ 6.53 mM)

## Nc1nc(F)nc2c1ncn2[C@H]1C[C@H](O)[C@@H](CO)O1 [F-dAdo, 2-F-2′-deoxyadenosine]
[8]
  Substrate for E. coli PNP compared with F-araA: much better substrate

## Ad/PNP
[9]
  E. coli PNP activity in the tumors: 7,500±2,000 units

Reference: patent US10080784B2, “Enhanced therapeutic usage of a purine nucleoside phosphorylase or nucleoside hydrolase prodrug” (SOUTHERN RESEARCH INSTITUTE, priority 2011, dated 2018)
